Laboratory results as given in PubChem BioAssay AID1259407 (Chemical Carcinogenesis Research Information System (CCRIS), 2018).
Active and inactive are the calls of the source. The rule behind the calls is not given here.

Tested on: CCRIS mutagenicity, Ames/micronucleus/aberration tests
Assay: CCRIS mutagenicity studies

Measured: mutagenic call

O=NN1CCCC1
inactive: Test System: AMES SALMONELLA TYPHIMURIUM, Strain/Indicator: TA97, Metabolic Activation: NONE, Method: STANDARD PLATE inactive; negative | Test System: AMES SALMONELLA TYPHIMURIUM, Strain/Indicator: TA97, Metabolic Activation: RAT, LIVER, S-9, AROCLOR 1254, Method: STANDARD PLATE inactive; negative | Test System: AMES SALMONELLA TYPHIMURIUM, Strain/Indicator: TA98, Metabolic Activation: NONE, Method: STANDARD PLATE inactive; negative | Test System: AMES SALMONELLA TYPHIMURIUM, Strain/Indicator: TA98, Metabolic Activation: RAT, LIVER, S-9, AROCLOR 1254, Method: STANDARD PLATE inactive; negative | Test System: AMES SALMONELLA TYPHIMURIUM, Strain/Indicator: TA100, Metabolic Activation: NONE, Method: STANDARD PLATE inactive; negative | Test System: AMES SALMONELLA TYPHIMURIUM, Strain/Indicator: TA100, Metabolic Activation: RABBIT, LIVER, S-9, Method: STANDARD PLATE inactive; negative | Test System: AMES SALMONELLA TYPHIMURIUM, Strain/Indicator: TA100, Metabolic Activation: RABBIT, LUNG, S-9, Method: STANDARD PLATE inactive; negative rabbit, lung, s-9 | Test System: AMES SALMONELLA TYPHIMURIUM, Strain/Indicator: TA100, Metabolic Activation: RAT, LIVER, S-9, AROCLOR 1254, Method: STANDARD PLATE inactive; negative | Test System: AMES SALMONELLA TYPHIMURIUM, Strain/Indicator: TA100, Metabolic Activation: RAT, LIVER, S-9, Method: PREINCUBATION inactive; negative | Test System: AMES SALMONELLA TYPHIMURIUM, Strain/Indicator: TA100, Metabolic Activation: RAT, LIVER, S-9, Method: STANDARD PLATE inactive; negative | Test System: AMES SALMONELLA TYPHIMURIUM, Strain/Indicator: TA100, Metabolic Activation: RAT, LUNG, S-9, Method: STANDARD PLATE inactive; negative | Test System: AMES SALMONELLA TYPHIMURIUM, Strain/Indicator: TA1530, Metabolic Activation: RAT LIVER, CYTOSOL, ISONIAZID, Method: PREINCUBATION inactive; negative | Test System: AMES SALMONELLA TYPHIMURIUM, Strain/Indicator: TA1535, Metabolic Activation: RAT, LIVER, S-9, 3-METHYLCHOLANTHRENE, Method: STANDARD PLATE inactive; negative | Test System: AMES SALMONELLA TYPHIMURIUM, Strain/Indicator: TA2410, Metabolic Activation: NONE, Method: HOST-MEDIATED inactive; negative | Test System: AMES SALMONELLA TYPHIMURIUM, Strain/Indicator: TA2678, Metabolic Activation: NONE, Method: HOST-MEDIATED inactive; negative
active: Test System: AMES SALMONELLA TYPHIMURIUM, Strain/Indicator: TA100, Metabolic Activation: HAMSTER, LIVER, S-9, Method: PREINCUBATION active; positive | Test System: AMES SALMONELLA TYPHIMURIUM, Strain/Indicator: TA100, Metabolic Activation: HUMAN, LIVER, S-9, Method: PREINCUBATION active; positive | Test System: AMES SALMONELLA TYPHIMURIUM, Strain/Indicator: TA100, Metabolic Activation: PIG, LIVER, S-9, Method: PREINCUBATION active; positive | Test System: AMES SALMONELLA TYPHIMURIUM, Strain/Indicator: TA100, Metabolic Activation: RABBIT, NASAL, S-9, Method: STANDARD PLATE active; positive | Test System: AMES SALMONELLA TYPHIMURIUM, Strain/Indicator: TA100, Metabolic Activation: RAT, ESOPHAGUS, S-9, Method: PREINCUBATION active; positive | Test System: AMES SALMONELLA TYPHIMURIUM, Strain/Indicator: TA100, Metabolic Activation: RAT, FORESTOMACH, S-9, Method: PREINCUBATION active; positive | Test System: AMES SALMONELLA TYPHIMURIUM, Strain/Indicator: TA100, Metabolic Activation: RAT, GLANDULAR STOMACH, S-9, Method: PREINCUBATION active; positive | Test System: AMES SALMONELLA TYPHIMURIUM, Strain/Indicator: TA100, Metabolic Activation: RAT, LIVER, S-9, AROCLOR 1254, Method: PREINCUBATION active; positive | Test System: AMES SALMONELLA TYPHIMURIUM, Strain/Indicator: TA100, Metabolic Activation: RAT, NASAL, S-9, Method: STANDARD PLATE active; positive | Test System: AMES SALMONELLA TYPHIMURIUM, Strain/Indicator: TA102, Metabolic Activation: RAT, LIVER, S-9, AROCLOR 1254, Method: PREINCUBATION active; positive | Test System: AMES SALMONELLA TYPHIMURIUM, Strain/Indicator: TA104, Metabolic Activation: RAT, LIVER, S-9, AROCLOR 1254, Method: PREINCUBATION active; positive | Test System: AMES SALMONELLA TYPHIMURIUM, Strain/Indicator: TA1530, Metabolic Activation: RAT LIVER, MICROSOMES, ISONIAZID, Method: PREINCUBATION active; positive | Test System: AMES SALMONELLA TYPHIMURIUM, Strain/Indicator: TA1530, Metabolic Activation: RAT, LIVER, S-9, Method: STANDARD PLATE active; positive | Test System: AMES SALMONELLA TYPHIMURIUM, Strain/Indicator: TA1535, Metabolic Activation: RAT, LIVER, MICROSOMES, Method: PREINCUBATION active; positive | Test System: AMES SALMONELLA TYPHIMURIUM, Strain/Indicator: TA1535, Metabolic Activation: RAT, LIVER, S-9, AROCLOR 1254, Method: PREINCUBATION active; positive | Test System: AMES SALMONELLA TYPHIMURIUM, Strain/Indicator: TA1535, Metabolic Activation: RAT, LIVER, S-9, ETHANOL, Method: STANDARD PLATE active; positive | Test System: AMES SALMONELLA TYPHIMURIUM, Strain/Indicator: TA1535, Metabolic Activation: RAT, LIVER, S-9, PHENOBARBITAL, Method: STANDARD PLATE active; positive | Test System: AMES SALMONELLA TYPHIMURIUM, Strain/Indicator: TA1535, Metabolic Activation: RAT, LIVER, S-9, PHENOBARBITONE AND BETA-NAPHTHOFLAVONE, Method: PREINCUBATION active; positive | Test System: AMES SALMONELLA TYPHIMURIUM, Strain/Indicator: TA1535, Metabolic Activation: RAT, LIVER, S-9, PHENOBARBITONE AND BETA-NAPHTHOFLAVONE, Method: STANDARD PLATE active; positive | Test System: AMES SALMONELLA TYPHIMURIUM, Strain/Indicator: TA1535, Metabolic Activation: RAT, LIVER, S-9, PYRAZOLE, Method: PREINCUBATION active; positive | Test System: AMES SALMONELLA TYPHIMURIUM, Strain/Indicator: TA1535, Metabolic Activation: RAT, LIVER, S-9, PYRAZOLE, Method: STANDARD PLATE active; positive | Test System: AMES SALMONELLA TYPHIMURIUM, Strain/Indicator: TA1975, Metabolic Activation: RAT, LIVER, S-9, AROCLOR 1254, Method: PREINCUBATION active; positive | Test System: Ames Salmonella typhimurium, Strain/Indicator: YG7108, Metabolic Activation: Rat, Liver, S-9, Phenobarbital/beta-naphtoflavone, Method: Standard plate active; positive | Test System: Ames Salmonella typhimurium, Strain/Indicator: YG7108pin3ERb5, Metabolic Activation: None, Method: Standard plate active; positive | Test System: CHINESE HAMSTER OVARY, Strain/Indicator: CHO-K1-BH4 (HGPRT), Metabolic Activation: RAT, LIVER, S-9, AROCLOR, Method: SUSPENSION/PLATE active; positive | Test System: CHINESE HAMSTER V-79, Strain/Indicator: V-79/8-AZAGUANINE, Metabolic Activation: RAT, LIVER, S-15, PHENOBARBITAL, Method: STANDARD PLATE active; positive | Test System: UDS RODENT HEPATOCYTES, Strain/Indicator: THY INCORP (NON-S-PHASE), Method: AUTORADIOGRAPHY active; positive

COC1=C(N)C(=O)c2nc(-c3nc(C(=O)O)c(C)c(-c4ccc(OC)c(OC)c4O)c3N)ccc2C1=O
active: Test System: AMES SALMONELLA TYPHIMURIUM, Strain/Indicator: TA102, Metabolic Activation: NONE, Method: STANDARD PLATE active; positive | Test System: AMES SALMONELLA TYPHIMURIUM, Strain/Indicator: TA2638, Metabolic Activation: NONE, Method: STANDARD PLATE active; positive | Test System: AMES SALMONELLA TYPHIMURIUM, Strain/Indicator: TA2638A, Metabolic Activation: NONE, Method: STANDARD PLATE active; positive | Test System: E. COLI, Strain/Indicator: WP2 (PKM101), Metabolic Activation: NONE, Method: STANDARD PLATE active; positive | Test System: E. COLI, Strain/Indicator: WP2 UVRA (PKM101), Metabolic Activation: NONE, Method: STANDARD PLATE active; positive | Test System: UDS HUMAN FIBROBLASTS, Strain/Indicator: THY INCORP (NON-S-PHASE), Metabolic Activation: NONE, Method: AUTORADIOGRAPHY active; positive
